Legend:
NDR2 = target: T1, NDR2 (Homo sapiens, UniProt Q9Y2H1); test: KinomeScan; type: binding; details: read-out: % Ctrl @ 10000 nM
T1 construct: host or cells: T7 phage grown in E. coli host derived from BL21
Procedure: (§1) Kinase assays: Assays were performed as described in Fabian et al. (2005) Nature Biotechnology, vol. 23, p. 329. Kinase-tagged T7 phage strains were grown in parallel in 24 or 96-well blocks in an E. coli host derived from the BL21 strain. E. coli were grown to log-phase and infected with T7 phage from a frozen stock (multiplicity of infection ˜0.1) and incubated with shaking at 32° C. until lysis (−90 minutes). The lysates were centrifuged and filtered to remove cell debris. […] The liganded beads were blocked with excess biotin and washed with blocking buffer (SeaBlock (Pierce), 1% BSA, 0.05% Tween 20, 1 mM DTT) to remove unbound ligand and to reduce non-specific phage binding.
(§2) Test compounds were prepared as 40× stocks in DMSO and diluted into the aqueous environment. 2.5% DMSO was added to control assays lacking a test compound. All reactions were performed in polystyrene 96-well plates that had been pretreated with blocking buffer in a final volume of 0.04 ml. […] The phage titer in the eluates was measured by quantitative PCR.

ROS1 = target: T2, ROS1 (Homo sapiens, UniProt P08922); test: KinomeScan; type: binding; details: read-out: % Ctrl @ 10000 nM
T2 construct: host or cells: E. coli host derived from BL21, T7 phage display
Procedure: as §1, §2

FGR = target: T3, FGR (Homo sapiens, UniProt P09769); test: KinomeScan; type: binding; details: read-out: % Ctrl @ 10000 nM
T3 construct: host or cells: T7 phage in E. coli host derived from BL21
Procedure: as §1, §2

STK33 = target: T4, STK33 (Homo sapiens, UniProt Q9BYT3); test: KinomeScan; type: binding; details: read-out: % Ctrl @ 10000 nM
T4 construct: host or cells: T7 phage grown in E. coli (BL21-derived)
Procedure: as §1, §2

ABL1(Q252H) = target: T5, ABL1(Q252H) (Homo sapiens, UniProt P00519, Q252H); test: KinomeScan; type: binding; details: read-out: % Ctrl @ 10000 nM
T5 construct: host or cells: E. coli (BL21-derived), T7 phage lysate
Procedure: as §1, §2

PKN2 = target: T6, PKN2 (Homo sapiens, UniProt Q16513); test: KinomeScan; type: binding; details: read-out: % Ctrl @ 10000 nM
T6 construct: host or cells: T7 phage in E. coli host derived from BL21
Procedure: as §1, §2

INSRR = target: T7, INSRR (Homo sapiens, UniProt P14616); test: KinomeScan; type: binding; details: read-out: % Ctrl @ 10000 nM
T7 construct: host or cells: T7 phage grown in E. coli host derived from BL21
Procedure: as §1, §2

MEK4 = target: T8, MEK4 (Homo sapiens, UniProt P45985); test: KinomeScan; type: binding; details: read-out: % Ctrl @ 10000 nM
T8 construct: host or cells: E. coli host derived from the BL21 strain, infected with T7 phage
Procedure: as §1, §2

PIK3CD = target: T9, PIK3CD (Homo sapiens, UniProt O00329); test: KinomeScan; type: binding; details: read-out: % Ctrl @ 10000 nM
T9 construct: host or cells: T7 phage in E. coli host derived from BL21
Procedure: as §1, §2

CDK8 = target: T10, CDK8 (Homo sapiens, UniProt P49336); test: KinomeScan; type: binding; details: read-out: % Ctrl @ 10000 nM
T10 construct: host or cells: T7 phage in E. coli host derived from BL21
Procedure: as §1, §2

ULK3 = target: T11, ULK3 (Homo sapiens, UniProt Q6PHR2); test: KinomeScan; type: binding; details: read-out: % Ctrl @ 10000 nM
T11 construct: host or cells: E. coli host derived from BL21, T7 phage
Procedure: as §1, §2

TGFBR2 = target: T12, TGFBR2 (Homo sapiens, UniProt P37173); test: KinomeScan; type: binding; details: read-out: % Ctrl @ 10000 nM
T12 construct: host or cells: T7 phage grown in E. coli (BL21-derived)
Procedure: as §1, §2

STK16 = target: T13, STK16 (Homo sapiens, UniProt O75716); test: KinomeScan; type: binding; details: read-out: % Ctrl @ 10000 nM
T13 construct: host or cells: T7 phage grown in E. coli (BL21-derived)
Procedure: as §1, §2

CSNK2A1 = target: T14, CSNK2A1 (Homo sapiens, UniProt P68400); test: KinomeScan; type: binding; details: read-out: % Ctrl @ 10000 nM
T14 construct: purchased Ambit Biosciences Corp (KinomeScan); host or cells: T7 phage in E. coli host derived from BL21
Procedure: as §1, §2

TAOK1 = target: T15, TAOK1 (Homo sapiens, UniProt Q7L7X3); test: KinomeScan; type: binding; details: read-out: % Ctrl @ 10000 nM
T15 construct: host or cells: T7 phage grown in E. coli (BL21-derived)
Procedure: as §1, §2

RIPK2 = target: T16, RIPK2 (Homo sapiens, UniProt O43353); test: KinomeScan; type: binding; details: read-out: % Ctrl @ 10000 nM
T16 construct: host or cells: E. coli host derived from BL21, T7 phage display
Procedure: as §1, §2

EPHA2 = target: T17, EPHA2 (Homo sapiens, UniProt P29317); test: KinomeScan; type: binding; details: read-out: % Ctrl @ 10000 nM
T17 construct: purchased Ambit Biosciences Corp; host or cells: T7 phage in E. coli host derived from BL21
Procedure: as §1, §2

EGFR(S752-1759del) = target: T18, EGFR(S752-1759del) (Homo sapiens, UniProt P00533, DEL752-759); test: KinomeScan; type: binding; details: read-out: % Ctrl @ 10000 nM
T18 construct: purchased Ambit Biosciences Corp; host or cells: T7 phage in E. coli host derived from BL21
Procedure: as §1, §2

ULK1 = target: T19, ULK1 (Homo sapiens, UniProt O75385); test: KinomeScan; type: binding; details: read-out: % Ctrl @ 10000 nM
T19 construct: host or cells: E. coli host derived from BL21, T7 phage
Procedure: as §1, §2

KIT(D816V) = target: T20, KIT(D816V) (Homo sapiens, UniProt P10721, D816V); test: KinomeScan; type: binding; details: read-out: % Ctrl @ 10000 nM
T20 construct: host or cells: T7 phage grown in E. coli host derived from BL21
Procedure: as §1, §2

TRKB = target: T21, TRKB (Homo sapiens, UniProt Q16620); test: KinomeScan; type: binding; details: read-out: % Ctrl @ 10000 nM
T21 construct: host or cells: E. coli host derived from BL21, T7 phage
Procedure: as §1, §2

BIKE = target: T22, BIKE (Homo sapiens, UniProt Q9NSY1); test: KinomeScan; type: binding; details: read-out: % Ctrl @ 10000 nM
T22 construct: host or cells: E. coli host derived from BL21
Procedure: as §1, §2

TRKC = target: T23, TRKC (Homo sapiens, UniProt Q16288); test: KinomeScan; type: binding; details: read-out: % Ctrl @ 10000 nM
T23 construct: host or cells: E. coli host derived from BL21, T7 phage
Procedure: as §1, §2

PLK4 = target: T24, PLK4 (Homo sapiens, UniProt O00444); test: KinomeScan; type: binding; details: read-out: % Ctrl @ 10000 nM
T24 construct: host or cells: T7 phage in E. coli host derived from BL21
Procedure: as §1, §2

NEK7 = target: T25, NEK7 (Homo sapiens, UniProt Q8TDX7); test: KinomeScan; type: binding; details: read-out: % Ctrl @ 10000 nM
T25 construct: host or cells: T7 phage grown in E. coli host derived from BL21
Procedure: as §1, §2

MAP3K3 = target: T26, MAP3K3 (Homo sapiens, UniProt Q99759); test: KinomeScan; type: binding; details: read-out: % Ctrl @ 10000 nM
T26 construct: host or cells: E. coli host derived from the BL21 strain, infected with T7 phage
Procedure: as §1, §2

EPHB4 = target: T27, EPHB4 (Homo sapiens, UniProt P54760); test: KinomeScan; type: binding; details: read-out: % Ctrl @ 10000 nM
T27 construct: purchased Ambit Biosciences Corp; host or cells: T7 phage in E. coli host derived from BL21
Procedure: as §1, §2

[1] = target: T28, JAK1(JH2domain-pseudokinase) (Homo sapiens, UniProt P23458); test: KinomeScan; type: binding; details: read-out: % Ctrl @ 10000 nM
T28 construct: JAK1(JH2domain-pseudokinase); host or cells: T7 phage grown in E. coli host derived from BL21
Procedure: as §1, §2

PRKCD = target: T29, PRKCD (Homo sapiens, UniProt Q05655); test: KinomeScan; type: binding; details: read-out: % Ctrl @ 10000 nM
T29 construct: host or cells: T7 phage in E. coli host derived from BL21
Procedure: as §1, §2

CDC2L2 = target: T30, CDC2L2 (Homo sapiens, UniProt Q9UQ88); test: KinomeScan; type: binding; details: read-out: % Ctrl @ 10000 nM
T30 construct: host or cells: T7 phage in E. coli host derived from BL21
Procedure: as §1, §2

DAPK2 = target: T31, DAPK2 (Homo sapiens, UniProt Q9UIK4); test: KinomeScan; type: binding; details: read-out: % Ctrl @ 10000 nM
T31 construct: purchased Ambit Biosciences Corp (KinomeScan); host or cells: T7 phage in E. coli host derived from BL21
Procedure: as §1, §2

hERG = hERG (Homo sapiens, UniProt Q12809); test: hERG Ikr (tail) current, whole cell patch-clamp in CHO cells; details: 10 μM
A549 human lung tumors = test: Evaluation of ED50 (lung section and tumor regression studies); type: in vivo, nude mice; details: Mus musculus, oral route
Procedure: ED50 values were evaluated based on the lung section and tumor regression studies.

T2 sequence (P08922 28-2347): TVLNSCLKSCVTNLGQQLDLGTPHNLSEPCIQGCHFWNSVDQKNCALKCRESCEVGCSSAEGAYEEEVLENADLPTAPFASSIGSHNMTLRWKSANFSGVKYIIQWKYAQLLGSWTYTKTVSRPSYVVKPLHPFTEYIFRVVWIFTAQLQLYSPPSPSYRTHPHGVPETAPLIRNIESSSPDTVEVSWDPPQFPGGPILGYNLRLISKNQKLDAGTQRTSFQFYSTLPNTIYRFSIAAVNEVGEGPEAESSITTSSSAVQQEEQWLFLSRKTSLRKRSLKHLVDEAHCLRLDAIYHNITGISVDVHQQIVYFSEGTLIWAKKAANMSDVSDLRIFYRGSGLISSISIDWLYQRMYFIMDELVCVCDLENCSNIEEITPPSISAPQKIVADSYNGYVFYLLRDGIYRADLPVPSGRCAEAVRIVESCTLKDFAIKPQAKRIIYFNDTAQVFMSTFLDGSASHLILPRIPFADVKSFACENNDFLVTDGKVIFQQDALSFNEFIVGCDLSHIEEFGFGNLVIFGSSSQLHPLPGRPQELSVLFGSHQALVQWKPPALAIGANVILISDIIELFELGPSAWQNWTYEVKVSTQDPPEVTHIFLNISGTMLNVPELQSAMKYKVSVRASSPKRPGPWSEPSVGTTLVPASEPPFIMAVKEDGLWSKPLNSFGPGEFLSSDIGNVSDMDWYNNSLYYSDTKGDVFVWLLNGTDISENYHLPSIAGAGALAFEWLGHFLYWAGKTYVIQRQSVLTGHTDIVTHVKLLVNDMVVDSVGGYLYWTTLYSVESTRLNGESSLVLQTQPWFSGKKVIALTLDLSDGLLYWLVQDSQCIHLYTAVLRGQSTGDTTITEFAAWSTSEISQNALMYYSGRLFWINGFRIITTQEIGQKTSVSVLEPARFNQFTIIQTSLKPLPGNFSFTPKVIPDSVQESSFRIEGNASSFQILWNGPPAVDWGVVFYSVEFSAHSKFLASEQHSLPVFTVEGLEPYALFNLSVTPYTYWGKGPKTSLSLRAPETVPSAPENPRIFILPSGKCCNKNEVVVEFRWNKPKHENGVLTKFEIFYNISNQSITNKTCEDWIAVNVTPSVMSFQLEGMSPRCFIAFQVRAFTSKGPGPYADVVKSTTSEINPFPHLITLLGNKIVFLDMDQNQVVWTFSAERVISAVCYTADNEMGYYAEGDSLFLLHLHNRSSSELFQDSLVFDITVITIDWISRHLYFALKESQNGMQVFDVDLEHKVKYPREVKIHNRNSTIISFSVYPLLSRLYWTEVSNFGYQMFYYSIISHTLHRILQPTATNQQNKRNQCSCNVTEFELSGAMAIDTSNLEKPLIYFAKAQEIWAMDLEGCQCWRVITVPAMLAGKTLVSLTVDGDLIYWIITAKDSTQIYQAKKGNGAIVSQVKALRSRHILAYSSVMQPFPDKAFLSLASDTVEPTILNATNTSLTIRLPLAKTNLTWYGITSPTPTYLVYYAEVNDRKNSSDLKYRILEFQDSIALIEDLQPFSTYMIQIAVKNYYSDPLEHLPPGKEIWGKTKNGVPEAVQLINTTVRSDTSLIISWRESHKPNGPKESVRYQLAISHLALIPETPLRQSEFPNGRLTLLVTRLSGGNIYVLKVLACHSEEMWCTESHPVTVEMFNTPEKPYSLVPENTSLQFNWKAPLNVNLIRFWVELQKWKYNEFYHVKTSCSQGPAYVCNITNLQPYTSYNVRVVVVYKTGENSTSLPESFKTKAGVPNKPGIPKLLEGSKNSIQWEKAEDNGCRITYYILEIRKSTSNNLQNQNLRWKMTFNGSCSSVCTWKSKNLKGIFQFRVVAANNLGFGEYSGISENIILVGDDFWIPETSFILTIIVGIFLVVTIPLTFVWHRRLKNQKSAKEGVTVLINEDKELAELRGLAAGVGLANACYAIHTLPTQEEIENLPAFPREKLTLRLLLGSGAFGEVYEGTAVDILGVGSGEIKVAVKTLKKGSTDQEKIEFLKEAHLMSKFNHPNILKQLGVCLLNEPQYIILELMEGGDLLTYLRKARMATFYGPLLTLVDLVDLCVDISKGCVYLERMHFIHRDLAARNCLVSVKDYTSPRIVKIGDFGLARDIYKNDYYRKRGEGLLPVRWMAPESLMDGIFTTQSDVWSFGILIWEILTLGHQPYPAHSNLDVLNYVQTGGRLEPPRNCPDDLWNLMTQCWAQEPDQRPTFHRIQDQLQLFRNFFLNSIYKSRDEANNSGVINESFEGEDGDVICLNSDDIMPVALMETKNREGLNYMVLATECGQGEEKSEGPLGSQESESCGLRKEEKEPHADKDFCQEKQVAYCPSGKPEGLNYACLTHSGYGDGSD
T18 sequence (P00533 with tags, fused parts or gaps DEL752-759 limits assumed): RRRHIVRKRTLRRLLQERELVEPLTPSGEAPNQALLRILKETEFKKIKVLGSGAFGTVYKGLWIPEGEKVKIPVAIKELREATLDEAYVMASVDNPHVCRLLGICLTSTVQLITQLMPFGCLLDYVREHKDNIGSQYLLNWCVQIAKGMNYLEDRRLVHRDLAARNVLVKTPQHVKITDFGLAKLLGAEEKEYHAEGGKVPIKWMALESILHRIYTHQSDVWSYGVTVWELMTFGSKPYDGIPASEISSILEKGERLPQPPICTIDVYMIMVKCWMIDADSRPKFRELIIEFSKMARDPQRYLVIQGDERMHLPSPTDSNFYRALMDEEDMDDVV
T4 sequence (Q9BYT3 whole entry): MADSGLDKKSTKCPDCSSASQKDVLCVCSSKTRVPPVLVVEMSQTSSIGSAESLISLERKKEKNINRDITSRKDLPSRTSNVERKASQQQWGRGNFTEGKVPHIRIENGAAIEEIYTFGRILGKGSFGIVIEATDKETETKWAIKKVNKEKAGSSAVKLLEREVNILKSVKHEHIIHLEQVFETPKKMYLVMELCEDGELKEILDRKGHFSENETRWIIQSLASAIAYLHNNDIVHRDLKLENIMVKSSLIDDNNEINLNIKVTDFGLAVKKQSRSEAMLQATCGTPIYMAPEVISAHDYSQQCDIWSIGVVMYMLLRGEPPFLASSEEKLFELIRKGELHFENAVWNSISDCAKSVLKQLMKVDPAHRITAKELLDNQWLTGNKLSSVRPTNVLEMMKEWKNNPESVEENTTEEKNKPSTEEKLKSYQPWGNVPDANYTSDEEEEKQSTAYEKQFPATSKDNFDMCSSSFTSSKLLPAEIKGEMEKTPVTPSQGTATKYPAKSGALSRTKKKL
T1 sequence (Q9Y2H1 whole entry): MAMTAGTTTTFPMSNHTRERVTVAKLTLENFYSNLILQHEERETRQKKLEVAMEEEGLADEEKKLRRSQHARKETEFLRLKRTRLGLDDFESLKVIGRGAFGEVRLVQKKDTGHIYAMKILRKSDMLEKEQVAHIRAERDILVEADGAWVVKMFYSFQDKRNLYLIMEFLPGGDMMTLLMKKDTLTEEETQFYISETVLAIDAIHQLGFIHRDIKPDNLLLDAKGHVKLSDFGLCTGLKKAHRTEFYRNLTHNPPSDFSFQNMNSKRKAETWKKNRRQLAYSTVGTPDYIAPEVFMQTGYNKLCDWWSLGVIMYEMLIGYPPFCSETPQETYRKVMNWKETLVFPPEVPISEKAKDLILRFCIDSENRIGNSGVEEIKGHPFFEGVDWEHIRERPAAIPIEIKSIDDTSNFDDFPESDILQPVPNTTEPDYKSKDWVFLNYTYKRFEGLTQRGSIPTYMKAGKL
T17 sequence (P29317 24-976): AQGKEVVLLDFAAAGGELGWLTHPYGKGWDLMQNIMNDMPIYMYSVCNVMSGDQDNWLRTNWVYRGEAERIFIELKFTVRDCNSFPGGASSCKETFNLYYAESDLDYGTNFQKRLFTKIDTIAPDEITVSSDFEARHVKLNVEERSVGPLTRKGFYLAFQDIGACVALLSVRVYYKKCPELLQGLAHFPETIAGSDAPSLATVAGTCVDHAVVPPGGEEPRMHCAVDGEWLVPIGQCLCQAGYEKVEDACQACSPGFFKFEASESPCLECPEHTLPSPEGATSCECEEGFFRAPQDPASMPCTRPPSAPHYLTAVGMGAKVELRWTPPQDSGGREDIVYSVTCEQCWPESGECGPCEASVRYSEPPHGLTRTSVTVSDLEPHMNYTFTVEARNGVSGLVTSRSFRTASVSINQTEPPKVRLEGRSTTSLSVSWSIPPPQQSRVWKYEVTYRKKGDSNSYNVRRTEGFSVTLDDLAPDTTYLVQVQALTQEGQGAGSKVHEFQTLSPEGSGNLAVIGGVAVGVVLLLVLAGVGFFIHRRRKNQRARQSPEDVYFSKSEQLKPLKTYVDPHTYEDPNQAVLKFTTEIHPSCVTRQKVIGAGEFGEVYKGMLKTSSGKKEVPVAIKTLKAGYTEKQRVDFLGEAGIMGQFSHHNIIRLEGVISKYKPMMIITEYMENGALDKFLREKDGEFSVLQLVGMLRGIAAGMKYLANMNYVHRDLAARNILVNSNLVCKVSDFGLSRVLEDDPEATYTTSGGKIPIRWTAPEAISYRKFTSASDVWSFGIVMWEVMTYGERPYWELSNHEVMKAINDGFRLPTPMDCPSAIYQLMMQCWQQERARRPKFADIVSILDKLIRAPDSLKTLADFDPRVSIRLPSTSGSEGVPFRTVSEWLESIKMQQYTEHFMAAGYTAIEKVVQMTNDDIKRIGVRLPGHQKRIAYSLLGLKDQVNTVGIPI
T25 sequence (Q8TDX7 whole entry): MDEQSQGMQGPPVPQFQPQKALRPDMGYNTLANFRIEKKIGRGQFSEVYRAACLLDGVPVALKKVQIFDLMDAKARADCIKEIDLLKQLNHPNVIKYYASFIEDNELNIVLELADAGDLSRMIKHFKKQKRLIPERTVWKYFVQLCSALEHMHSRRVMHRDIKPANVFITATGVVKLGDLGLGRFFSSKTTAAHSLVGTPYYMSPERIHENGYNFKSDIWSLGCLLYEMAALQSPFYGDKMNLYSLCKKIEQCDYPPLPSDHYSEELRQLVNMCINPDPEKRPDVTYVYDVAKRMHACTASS

For `C#Cc1cccc(Nc2ncnc3cc(OC)c(OCCCN4CCOCC4)cc23)c1` [NRC-2694, N-(3-ethynylphenyl)-7-methoxy-6-[3-(4-morpholinyl)propoxy]-4-quinazolinamine], the remaining binding at 10 µM (NDR2) was 74%, the remaining binding at 10 µM (ROS1) was 46% and the remaining binding at 10 µM (FGR) was 19%. For the same compound, the remaining binding at 10 µM (STK33) was 43%, the remaining binding at 10 µM (ABL1(Q252H)) was 15% and the remaining binding at 10 µM (PKN2) was 31%. For the same compound, the remaining binding at 10 µM (INSRR) was 79%, the remaining binding at 10 µM (MEK4) was 92% and the remaining binding at 10 µM (PIK3CD) was 89%. For the same compound, the remaining binding at 10 µM (CDK8) was 100%, the remaining binding at 10 µM (ULK3) was 62% and the remaining binding at 10 µM (TGFBR2) was 86%. For the same compound, the remaining binding at 10 µM (STK16) was 100%, the remaining binding at 10 µM (CSNK2A1) was 56% and the remaining binding at 10 µM (TAOK1) was 54%. It also gave a remaining binding at 10 µM (RIPK2) of 2.4%, a remaining binding at 10 µM (EPHA2) of 100% and a remaining binding at 10 µM (EGFR(S752-1759del)) of 0%. It also gave a remaining binding at 10 µM (ULK1) of 100%, a remaining binding at 10 µM (KIT(D816V)) of 17% and a remaining binding at 10 µM (TRKB) of 73%. The remaining binding at 10 µM (BIKE) was 36%, the remaining binding at 10 µM (TRKC) was 80% and the remaining binding at 10 µM (PLK4) was 70%. The remaining binding at 10 µM (NEK7) was 78%, the remaining binding at 10 µM (MAP3K3) was 5.9% and the remaining binding at 10 µM (EPHB4) was 39%. The remaining binding at 10 µM [1] was 81%, the remaining binding at 10 µM (PRKCD) was 84% and the remaining binding at 10 µM (CDC2L2) was 37%. For the same compound, the remaining binding at 10 µM (DAPK2) was 61%, the “inhibition of hERG current” value (hERG) was ~42% and the ED50 (A549 human lung tumors) was 6.3 mg/kg.

Reference: patent US8921362B2, “6,7-dialkoxy quinazoline derivatives and methods of treating drug resistant and other tumors” (Natco Pharma Limited, priority 2008, dated 2014)
